From US7964607B2, “Pyrazolo[3,4-d]pyrimidine compounds” (Pfizer Inc., priority 2007, dated 2011)
Like-named read-outs stand apart in the source and are kept apart here.

Target: T1, human recombinant PDE9 enzyme (Homo sapiens, UniProt O76083)
T1 construct: made in house; host or cells: SF-9 insect cells
Assay: Phosphodiesterase 9 (PDE9) inhibitory activity, Scintillation Proximity (SPA) assay
Format: biochemical
Method in brief: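 Scintillation proximity read-out of [3H]cGMP hydrolysis after 30 min at room temperature, with enzyme addition starting the reaction. The enzyme was human recombinant PDE9 expressed in SF-9 cells, titrated to keep substrate turnover at 20% or less. Compound wells held 2% DMSO final, and background was defined with excess PDE inhibitor.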

[1] = human recombinant PDE9 from SF-9 cells, 50 nM [3H]cGMP, room temperature, 30 min, Examples 3-114, read-out: G5678A (U): IC50

T1 sequence (O76083 whole entry): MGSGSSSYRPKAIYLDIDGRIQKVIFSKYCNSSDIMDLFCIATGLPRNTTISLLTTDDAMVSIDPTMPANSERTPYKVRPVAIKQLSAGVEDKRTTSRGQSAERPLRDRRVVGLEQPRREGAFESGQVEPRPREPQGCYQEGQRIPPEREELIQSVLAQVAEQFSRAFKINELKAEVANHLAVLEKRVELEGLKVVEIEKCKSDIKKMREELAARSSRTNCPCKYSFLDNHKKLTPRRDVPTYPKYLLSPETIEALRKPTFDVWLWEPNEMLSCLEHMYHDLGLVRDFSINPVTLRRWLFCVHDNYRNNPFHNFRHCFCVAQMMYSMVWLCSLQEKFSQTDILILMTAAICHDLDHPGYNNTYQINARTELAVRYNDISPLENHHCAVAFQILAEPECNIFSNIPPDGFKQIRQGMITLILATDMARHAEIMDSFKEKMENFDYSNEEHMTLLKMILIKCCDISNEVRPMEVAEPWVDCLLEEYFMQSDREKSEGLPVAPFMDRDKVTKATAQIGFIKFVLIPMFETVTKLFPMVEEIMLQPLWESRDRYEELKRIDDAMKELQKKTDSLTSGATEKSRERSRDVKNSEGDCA

## Cc1nn(C2CCOCC2)c2nc([C@@H]3CN(Cc4cccnc4)C[C@H]3C)[nH]c(=O)c12 [Example 92, 3-methyl-6-[(3S,4S)-4-methyl-1-(pyridin-3-ylmethyl)pyrrolidin-3-yl]-1-(tetrahydro-2H-pyran-4-yl)-1,5-dihydro-4H-pyrazolo[3,4-d]pyrimidin-4-one]
[1]
  IC50: 23.3 nM

## Cc1ncc(CN2C[C@@H](C)[C@H](c3nc4c(c(C)nn4C4CCOCC4)c(=O)[nH]3)C2)cn1 [Example 93, 3-methyl-6-{(3S,4S)-4-methyl-1-[(2-methylpyrimidin-5-yl)methyl]pyrrolidin-3-yl}-1-(tetrahydro-2H-pyran-4-yl)-1,5-dihydro-4H-pyrazolo[3,4-d]pyrimidin-4-one]
[1]
  IC50: 24.3 nM

## COc1ccc(CN2C[C@@H](C)[C@H](c3nc4c(c(C)nn4C4CCOCC4)c(=O)[nH]3)C2)cn1 [Example 94, 6-{(3S,4S)-1-[(6-methoxypyridin-3yl)methyl]-4-methylpyrrolidin-3-yl}-3methyl-1-(tetrahyrdro-2H-pyran-4-yl)-1,5-dihydro-4H-pyrazolo[3,4-d]pyrimidin-4-one]
[1]
  IC50: 14.2 nM

## Cc1cccc(CN2C[C@@H](C)[C@H](c3nc4c(cnn4C4CCOCC4)c(=O)[nH]3)C2)n1 [Example 95, 6-{(3S,4S)-4-methyl-1-[(6-methylpyridin-2-yl)methyl]pyrrolidin-3-yl}-1-(tetrahydro-2H-pyran-4-yl)-1,5-dihydro-4H-pyrazolo[3,4-d]pyrimidin-4-one]
[1]
  IC50: 3.92 nM

## C[C@@H]1CN(Cc2ccc(F)cc2)C[C@H]1c1nc2c(cnn2C2CCOCC2)c(=O)[nH]1 [Example 96, 6-[(3S,4S)-1-(4-fluorobenzyl)-4-methylpyrrolidin-3-yl]-1-(tetrahydro-2H-pyran-4-yl)-1,5-dihydro-4H-pyrazolo[3,4-d]pyrimidin-4-one]
  IC50: 7.13 nM

## C[C@@H]1CN(Cc2ccccc2F)C[C@H]1c1nc2c(cnn2C2CCOCC2)c(=O)[nH]1 [Example 98, 6-[(3S,4S)-1-(2-fluorobenzyl)-4-methylpyrrolidin-3-yl]-1-(tetrahydro-2H-pyran-4-yl)-1,5-dihydro-4H-pyrazolo[3,4-d]pyrimidin-4-one]
  IC50: 7.93 nM

## C[C@@H]1CN(Cc2ccccc2C(F)(F)F)C[C@H]1c1nc2c(cnn2C2CCOCC2)c(=O)[nH]1 [Example 99, 6-{(3S,4S)-4-methyl-1-[2-(trifluoromethyl)benzyl]pyrrolidin-3-yl}-1-(tetrahydro-2H-pyran-4-yl)-1,5-dihydro-4H-pyrazolo[3,4-d]pyrimidin-4-one]
[1]
  IC50: 12.8 nM

## C[C@@H]1CN(Cc2ccc(F)cc2F)C[C@H]1c1nc2c(cnn2C2CCOCC2)c(=O)[nH]1 [Example 100, 6-[(3S,4S)-1-(2,4-difluorobenzyl)-4-methylpyrrolidin-3-yl]-1-(tetrahydro-2H-pyran-4-yl)-1,5-dihydro-4H-pyrazolo[3,4-d]pyrimidin-4-one]
[1]
  IC50: 22.7 nM

## COc1ccc(CN2C[C@@H](C)[C@H](c3nc4c(cnn4C4CCOCC4)c(=O)[nH]3)C2)cc1 [Example 101, 6-[(3S,4S)-1-(4-methoxybenzyl)-4-methylpyrrolidin-3-yl]-1-(tetrahydro-2H-pyran-4-yl)-1,5-dihydro-4H-pyrazolo[3,4-d]pyrimidin-4-one]
  IC50: 7.94 nM

## C[C@@H]1CN(Cc2ccccc2)C[C@H]1c1nc2c(cnn2C2CCSCC2)c(=O)[nH]1 [Example 102, 6-[(3S,4S)-1-benzyl-4-methylpyrrolidin-3-yl]-1-(tetrahydro-2H-thiopyran-4-yl)-1,5-dihydro-4H-pyrazolo[3,4-d]pyrimidin-4-one]
[1]
  IC50: 19.7 nM

## COc1ccccc1CN1C[C@@H](C)[C@H](c2nc3c(cnn3C3CCOCC3)c(=O)[nH]2)C1 [Example 103, 6-[(3S,4S)-1-(2-methoxybenzyl)-4-methylpyrrolidin-3-yl]-1-(tetrahydro-2H-pyran-4-yl)-1,5-dihydro-4H-pyrazolo[3,4-d]pyrimidin-4-one]
[1]
  IC50: 15.2 nM

## COc1cccc(CN2C[C@@H](C)[C@H](c3nc4c(cnn4C4CCOCC4)c(=O)[nH]3)C2)c1 [Example 104, 6-[(3S,4S)-1-(3-methoxybenzyl)-4-methylpyrrolidin-3-yl]-1-(tetrahydro-2H-pyran-4-yl)-1,5-dihydro-4H-pyrazolo[3,4-d]pyrimidin-4-one]
[1]
  IC50: 3.98 nM

## C[C@@H]1CN(Cc2cccc(C(F)(F)F)c2)C[C@H]1c1nc2c(cnn2C2CCOCC2)c(=O)[nH]1 [Example 105, 6-{(3S,4S)-4-methyl-1-[3-(trifluoromethyl)benzyl]pyrrolidin-3-yl}-1-(tetrahydro-2H-pyran-4-yl)-1,5-dihydro-4H-pyrazolo[3,4-d]pyrimidin-4-one]
[1]
  IC50: 3.29 nM

## C[C@@H]1CN(Cc2c(F)cccc2F)C[C@H]1c1nc2c(cnn2C2CCOCC2)c(=O)[nH]1 [Example 106, 6-[(3S,4S)-1-(26-difluorobenzyl)-4-methylpyrrolidin-3-yl]-1-(tetrahydro-2H-pyran-4-yl)-1,5-dihydro-4H-pyrazolo[3,4-d]pyrimidin-4-one]
[1]
  IC50: 8.06 nM

## CC[C@@H]1CN(Cc2cnc(C)cn2)C[C@H]1c1nc2c(cnn2C2CCOCC2)c(=O)[nH]1 [Example 107, 6-{(3S,4S)-4-ethyl-1-[(5-methylpyrazin-2-yl)methyl]pyrrolidin-3-yl}-1-(tetrahydro-2H-pyran-4-yl)-1,5-dihydro-4H-pyrazolo[3,4-d]pyrimidin-4-one]
[1]
  IC50: 4.33 nM

## CC[C@@H]1CN(Cc2ccc(OC)nc2)C[C@H]1c1nc2c(cnn2C2CCOCC2)c(=O)[nH]1 [Example 108, 6-{(3S,4S)-4-ethyl-1-[(6-methoxypyridin-3-yl)methyl]pyrrolidin-3-yl}-1-(tetrahydro-2H-pyran-4-yl)-1,5-dihydro-4H-pyrazolo[3,4-d]pyrimidin-4-one]
[1]
  IC50: 3.11 nM

## CC[C@@H]1CN(Cc2ccccn2)C[C@H]1c1nc2c(cnn2C2CCOCC2)c(=O)[nH]1 [Example 109, 6-[(3S,4S)-4-ethyl-1-(pyridin-2-ylmethyl)pyrrolidin-3-yl]-1-(tetrahydro-2H-pyran-4-yl)-1,5-dihydro-4H-pyrazolo[3,4-d]pyrimidin-4-one]
[1]
  IC50: 4.21 nM

## CC[C@@H]1CN(C(=O)c2cnc3ccccc3n2)C[C@H]1c1nc2c(cnn2C2CCOCC2)c(=O)[nH]1 [Example 110, 6-[(3S,4S)-4-ethyl-1-(quinoxalin-2-ylcarbonyl)pyrrolidin-3-yl]-1-(tetrahydro-2H-pyran-4-yl)-1,5-dihydro-4H-pyrazolo[3,4-d]pyrimidin-4-one]
[1]
  IC50: 2.59 nM

## CC[C@@H]1CN(Cc2ccccc2C#N)C[C@H]1c1nc2c(cnn2C2CCOCC2)c(=O)[nH]1 [Example 112, 2-({(3S,4S)-3-ethyl-4-[4-oxo-1-(tetrahydro-2H-pyran-4-yl)-45-dihydro-1H-pyrazolo[3,4-d]pyrimidin-6-yl]pyrrolidin-1-yl}methyl)benzonitrile]
[1]
  IC50: 1.37 nM

## CC[C@@H]1CN(Cc2cccc(C#N)c2)C[C@H]1c1nc2c(cnn2C2CCOCC2)c(=O)[nH]1 [Example 113, 3-({(3S,4S)-3-ethyl-4-[4-oxo-1-(tetrahydro-2H-pyran-4-yl)-4,5-dihydro-1H-pyrazolo[3,4-d]pyrimidin-6-yl]pyrrolidin-1-yl}methyl)benzonitrile]
[1]
  IC50: < 1 nM

## CC[C@@H]1CN(Cc2ccc(C#N)cc2)C[C@H]1c1nc2c(cnn2C2CCOCC2)c(=O)[nH]1 [Example 114, 4-({(3S,4S)-3-ethyl-4-[4-oxo-1-(tetrahydro-2H-pyran-4-yl)-45-dihydro-1H-pyrazolo[3,4-d]pyrimidin-6-yl]pyrrolidin-1-yl}methyl)benzonitrile]
[1]
  IC50: 2.31 nM

## Cc1cc(CN2CC(C)C(c3nc4c(cnn4C4CCCC4)c(=O)[nH]3)C2)n(C)n1 (stereo not drawn) [Example 133, 1-cyclopentyl-6-{(3,4-trans)-1-[(1,3-dimethyl-1H-pyrazol-5-yl)methyl]-4-methylpyrrolidin-3-yl}-1,5-dihydro-4H-pyrazolo[3,4-d]pyrimidin-4-one]
Human recombinant PDE9 from SF-9 cells, 50 nM [3H]cGMP, room temperature, 30 min, additional compounds Ex. 115-228, read-out: G5678A (U):IC50
  IC50: 33.7 nM
